Results on 12 molecules are retold here after patent US9376425B2, “Heterocyclic compounds as MDM2 inhibitors for the treatment of cancer” (AMGEN INC., priority 2011, dated 2016).

Structures can show the parent of a compound that is named as a salt. A value given as a limit tells only on which side of the number the result lay.

The target of the assay is T1, human MDM2 (GST-hMDM2 1-188), interaction with biotinylated-p53 (1-83) (Homo sapiens, UniProt Q00987).
T1 construct: Amino acid residues 1-188 of human MDM2 were expressed; made in house; host or cells: Escherichia coli
T1 sequence (Q00987 1-188): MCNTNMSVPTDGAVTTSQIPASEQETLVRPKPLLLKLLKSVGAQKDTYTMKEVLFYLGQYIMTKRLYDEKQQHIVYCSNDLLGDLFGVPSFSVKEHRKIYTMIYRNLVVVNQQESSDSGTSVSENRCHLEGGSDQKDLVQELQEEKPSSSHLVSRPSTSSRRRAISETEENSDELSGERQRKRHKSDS
Description: improved HTRF assay (HTRF2 assay), inhibition of HDM2-p53 interaction. The conditions noted are these: 0.2 nM GST-hMDM2, 0.5 nM biotinylated-p53, 100 mM KF. The assay is classed as binding. The procedure: Residues 1-83 of human p53 were expressed as an amino-terminal AviTag™-TrxA-6xHis fusion protein (biotinylated p53) in E. coli. Each protein was purified from cell paste by affinity chromatography.
Specifically, 10 uL of GST-hMDM2 was incubated with 10 ul of diluted compound (various concentrations, serially diluted) in 10% DMSO for 20 minutes at room temperature. 20 uL of biotinylated-p53 was added to the GST-hMDM2+ compound mixture, and then incubated at room temperature for 60 min. 10 uL of detection buffer consisting of SA-XLent, anti-GST cryptate antibody and KF was added to GST-hMDM2, biotinylated-p53 and compound reaction and left at room temperature to reach equilibrium for >4 hrs. The final concentration of DMSO in the reaction was 2%. Time-resolved fluorescence readings were measured on a microplate multilabel reader. Percentage of inhibition was calculated relative to nutlin-3.
As to “2-((2R,5R,6R)-6-(3-Chlorophenyl)-5-(4-chlorophenyl)-4-((3S,5R)-5-hydroxyhexan-3-yl)-3-oxomorpholin-2-yl)acetic acid or 2-((2R,5R,6R)-6-(3-Chlorophenyl)-5-(4-chlorophenyl)-4-((3S,5S)-5-hydroxyhexan-3-yl)-3-oxomorpholin-2-yl)acetic acid [Example 127]”, the IC50 was found to be 34 nM. Next, “2-((2R,5R,6R)-6-(3-Chlorophenyl)-5-(4-chlorophenyl)-4-((3S,5S)-5-hydroxyhexan-3-yl)-3-oxomorpholin-2-yl)acetic acid or 2-((2R,5R,6R)-6-(3-Chlorophenyl)-5-(4-chlorophenyl)-4-((3S,5R)-5-hydroxyhexan-3-yl)-3-oxomorpholin-2-yl)acetic acid [Example 126]”: 61 nM; “2-((2R,5R,6R)-6-(3-chlorophenyl)-5-(4-chlorophenyl)-4-((S)-1-(N-(2-cyanophenyl)cyclopropanesulfonamido)butan-2-yl)-3-oxomorpholin-2-yl)acetic acid or 2-((2S,5R,6R)-6-(3-chlorophenyl)-5-(4-chlorophenyl)-4-((S)-1-(N-(2-cyanophenyl)cyclopropanesulfonamido)butan-2-yl)-3-oxomorpholin-2-yl)acetic acid [Example 206]”: 145 nM; “2-((2R,5R,6R)-6-(3-chlorophenyl)-5-(4-chlorophenyl)-4-((S)-1-(N-(2-cyanophenyl)cyclopropanesulfonamido)butan-2-yl)-3-oxomorpholin-2-yl)acetic acid or 2-((2S,5R,6R)-6-(3-chlorophenyl)-5-(4-chlorophenyl)-4-((S)-1-(N-(2-cyanophenyl)cyclopropanesulfonamido)butan-2-yl)-3-oxomorpholin-2-yl)acetic acid [Example 207]”: below 1 nM. Next, “2-((2R,5R,6R)-6-(3-chlorophenyl)-5-(4-chlorophenyl)-4-((S)-1-(N-(2-fluorophenyl)cyclopropanesulfonamido)-3-methylbutan-2-yl)-3-oxomorpholin-2-yl)acetic acid or 2-((2S,5R,6R)-6-(3-chlorophenyl)-5-(4-chlorophenyl)-4-((S)-1-(N-(2-fluorophenyl)cyclopropane sulfonamido)-3-methylbutan-2-yl)-3-oxomorpholin-2-yl)acetic acid [Example 196]”: 1 nM; `CC(C)(C)S(=O)(=O)C[C@H](C1CC1)N1C(=O)[C@@H](CC(=O)O)O[C@H](c2cccc(Cl)c2F)[C@H]1c1ccc(Cl)cc1.CC(C)(C)S(=O)(=O)C[C@H](C1CC1)N1C(=O)[C@H](CC(=O)O)O[C@H](c2cccc(Cl)c2F)[C@H]1c1ccc(Cl)cc1` (mixture of isomers) [Example 326, 2-((2R,5R,6R)-4-((S)-2-(tert-Butylsulfonyl)-1-cyclopropylethyl)-6-(3-chloro-2-fluorophenyl)-5-(4-chlorophenyl)-3-oxomorpholin-2-yl)acetic acid and 2-((2S,5R,6R)-4-((S)-2-(tert-butylsulfonyl)-1-cyclopropylethyl)-6-(3-chloro-2-fluorophenyl)-5-(4-chlorophenyl)-3-oxomorpholin-2-yl)acetic acid]: below 1 nM. Next, `CC[C@@H](CS(=O)(=O)C(C)(C)C)N1C(=O)C(CN)O[C@H](c2cccc(Cl)c2)[C@H]1c1ccc(Cl)cc1` (mixture of isomers) [Example 378, (2R,5R,6R)-2-(Aminomethyl)-4-((S)-1-(tert-butylsulfonyl)butan-2-yl)-6-(3-chlorophenyl)-5-(4-chlorophenyl)morpholin-3-one hydrochloride and (2S,5R,6R)-2-(aminomethyl)-4-((S)-1-(tert-butylsulfonyl)butan-2-yl)-6-(3-chlorophenyl)-5-(4-chlorophenyl)morpholin-3-one hydrochloride]: 142 nM; `CC[C@@H](CS(=O)(=O)C(C)(C)CC)N1C(=O)[C@@H](CC(=O)O)O[C@H](c2cccc(Cl)c2)[C@H]1c1ccc(Cl)cc1` (single isomer, unassigned) [Example 122, 2-((2R,5R,6R)-6-(3-Chlorophenyl)-5-(4-chlorophenyl)-3-oxo-4-((S)-1-(tert-pentylsulfonyl)butan-2-yl)morpholin-2-yl)acetic acid or 2-((2S,5R,6R)-6-(3-Chlorophenyl)-5-(4-chlorophenyl)-3-oxo-4-((S)-1-(tert-pentylsulfonyl)butan-2-yl)morpholin-2-yl)acetic acid]: below 1 nM. In turn, `CC[C@@H](CS(=O)(=O)C(C)(C)CC)N1C(=O)[C@H](CC(=O)O)O[C@H](c2cccc(Cl)c2)[C@H]1c1ccc(Cl)cc1` (single isomer, unassigned) [Example 123, 2-((2S,5R,6R)-6-(3-Chlorophenyl)-5-(4-chlorophenyl)-3-oxo-4-((S)-1-(tert-pentylsulfonyl)butan-2-yl)morpholin-2-yl)acetic acid or 2-((2R,5R,6R)-6-(3-Chlorophenyl)-5-(4-chlorophenyl)-3-oxo-4-((S)-1-(tert-pentylsulfonyl)butan-2-yl)morpholin-2-yl)acetic acid] gave an IC50 of 1 nM. For the molecule `CC[C@@H](CS(=O)(=O)C(C)C)N1C(=O)[C@@H](CC(=O)O)O[C@H](c2cc(F)cc(Cl)c2)[C@H]1c1ccc(Cl)cc1` (single isomer, unassigned) [Example 124, 2-((2R,5R,6R)-6-(3-Chloro-5-fluorophenyl)-5-(4-chlorophenyl)-4-((S)-1-(isopropylsulfonyl)butan-2-yl)-3-oxomorpholin-2-yl)acetic acid or 2-((2S,5R,6R)-6-(3-Chloro-5-fluorophenyl)-5-(4-chlorophenyl)-4-((S)-1-(isopropylsulfonyl)butan-2-yl)-3-oxomorpholin-2-yl)acetic acid], the IC50 was determined as 2 nM.

Regarding `CC[C@@H](CS(=O)(=O)C(C)C)N1C(=O)[C@H](CC(=O)O)O[C@H](c2cc(F)cc(Cl)c2)[C@H]1c1ccc(Cl)cc1` (single isomer, unassigned) [Example 125, 2-((2S,5R,6R)-6-(3-Chloro-5-fluorophenyl)-5-(4-chlorophenyl)-4-((S)-1-(isopropylsulfonyl)butan-2-yl)-3-oxomorpholin-2-yl)acetic acid or 2-((2R,5R,6R)-6-(3-Chloro-5-fluorophenyl)-5-(4-chlorophenyl)-4-((S)-1-(isopropylsulfonyl)butan-2-yl)-3-oxomorpholin-2-yl)acetic acid], half-maximal inhibition (IC50) was put at 11 nM. This IC50 lies about 5.5-fold higher than the previous one. `CC[C@@H](CS(=O)(=O)c1ccccc1Cl)N1C(=O)[C@@H](CC(=O)O)O[C@H](c2cccc(Cl)c2)[C@H]1c1ccc(Cl)cc1` (single isomer, unassigned) [Example 137, 2-((2R,5R,6R)-6-(3-chlorophenyl)-5-(4-chlorophenyl)-4-((S)-1-((2-chlorophenyl)sulfonyl)butan-2-O-3-oxomorpholin-2-yl)acetic acid or 2-((2S,5R,6R)-6-(3-chlorophenyl)-5-(4-chlorophenyl)-4-((S)-1-((2-chlorophenyl)sulfonyl)butan-2-yl)-3-oxomorpholin-2-yl)acetic acid] returned an IC50 of 5 nM.
